Data published in ChEMBL document CHEMBL4665622, “Repurposing ibuprofen to control Staphylococcus aureus biofilms” (2019).
≈ marks a conversion by molar mass, not a printed value.

Key:
[1] = tested on: Cell membrane; assay: Effect on surface tension of Staphylococcus aureus CECT 976 assessed as electron acceptor component at 0.5 times of MIC incubated for 1 hr (reference value: 0.5 +/- 0.1 mJ/m2); type: subcellular
[2] = tested on: Cell membrane; assay: Effect on surface tension of Staphylococcus aureus CECT 976 assessed as electron acceptor component at 0.25 times of MIC incubated for 1 hr (reference value: 0.5 +/- 0.1 mJ/m2); type: subcellular
[3] = tested on: Cell membrane; assay: Effect on surface tension of Staphylococcus aureus CECT 976 assessed as Lewis acid-base at MIC incubated for 1 hr (reference value: 10.5 +/- 1.3 mJ/m2); type: subcellular
[4] = tested on: Cell membrane; assay: Effect on surface tension of Staphylococcus aureus CECT 976 assessed as Lewis acid-base at 0.5 times of MIC incubated for 1 hr (reference value: 10.5 +/- 1.3 mJ/m2); type: subcellular
[5] = tested on: Cell membrane; assay: Effect on surface tension of Staphylococcus aureus CECT 976 assessed as Lewis acid-base at 0.25 times of MIC incubated for 1 hr (reference value: 10.5 +/- 1.3 mJ/m2); type: subcellular
[6] = tested on: Cell membrane; assay: Effect on surface tension of Staphylococcus aureus CECT 976 assessed as Lifshitz-van der Waals at MIC incubated for 1 hr (reference value: 40.5 +/- 0.0 mJ/m2); type: subcellular
[7] = tested on: Cell membrane; assay: Disruption of cytoplasmic membrane integrity in Staphylococcus aureus CECT 976 assessed as potassium ion release at MBC incubated for 1 hr by flame emission and atomic absorption spectroscopy (reference value: 0 mg/L); type: subcellular
[8] = tested on: Cell membrane; assay: Disruption of cytoplasmic membrane integrity in Staphylococcus aureus CECT 976 assessed as potassium ion release at MIC incubated for 1 hr by flame emission and atomic absorption spectroscopy (reference value: 0 mg/L); type: subcellular
[9] = tested on: Cell membrane; assay: Disruption of cytoplasmic membrane integrity in Staphylococcus aureus CECT 976 assessed as potassium ion release at 0.5 times of MIC incubated for 1 hr by flame emission and atomic absorption spectroscopy (reference value: 0 mg/L); type: subcellular
[10] = tested on: Cell membrane; assay: Disruption of cytoplasmic membrane integrity in Staphylococcus aureus CECT 976 assessed as potassium ion release at 0.25 times of MIC incubated for 1 hr by flame emission and atomic absorption spectroscopy (reference value: 0 mg/L); type: subcellular
[11] = tested on: Cell membrane; assay: Destabilization of cytoplasmic membrane integrity in Staphylococcus aureus CECT 976 at MIC incubated for 1 hr by epifluorescence microscope analysis (reference value: 10.6 %); type: subcellular
[12] = tested on: Cell membrane; assay: Destabilization of cytoplasmic membrane integrity in Staphylococcus aureus CECT 976 at 0.5 times of MIC incubated for 1 hr by epifluorescence microscope analysis (reference value: 10.6 %); type: subcellular
[13] = tested on: Cell membrane; assay: Destabilization of cytoplasmic membrane integrity in Staphylococcus aureus CECT 976 at 0.25 times of MIC incubated for 1 hr by epifluorescence microscope analysis (reference value: 10.6 %); type: subcellular
[14] = tested on: Staphylococcus aureus; assay: Bactericidal activity against Staphylococcus aureus XU212 assessed as reduction in bacterial growth incubated for 24 hrs by broth microdilution method; type: functional
[15] = tested on: Staphylococcus aureus; assay: Bactericidal activity against Staphylococcus aureus SA1199B assessed as reduction in bacterial growth incubated for 24 hrs by broth microdilution method; type: functional
[16] = tested on: Staphylococcus aureus; assay: Bactericidal activity against Staphylococcus aureus RN4220 assessed as reduction in bacterial growth incubated for 24 hrs by broth microdilution method; type: functional
[17] = tested on: Staphylococcus aureus; assay: Bactericidal activity against Staphylococcus aureus CECT 976 incubated for 24 hrs by broth microdilution method; type: functional
[18] = Antibacterial activity against Paracoccus yeei assessed as reduction in bacterial growth at pH 5 incubated for 24 hrs by broth microdilution method; type: functional
[19] = tested on: Staphylococcus aureus; assay: Antibacterial activity against Staphylococcus aureus assessed as reduction in bacterial growth incubated for 24 hrs by broth microdilution method; type: functional
[20] = tested on: Staphylococcus aureus; assay: Antibacterial activity against Staphylococcus aureus assessed as reduction in bacterial growth at pH 5 incubated for 24 hrs by broth microdilution method; type: functional
[21] = tested on: Staphylococcus aureus; assay: Antibacterial activity against Staphylococcus aureus assessed as reduction in bacterial growth at pH 6 incubated for 24 hrs by broth microdilution method; type: functional
[22] = tested on: Staphylococcus aureus; assay: Antibacterial activity against Staphylococcus aureus assessed as reduction in bacterial growth at pH 7 incubated for 24 hrs by broth microdilution method; type: functional
[23] = tested on: Staphylococcus aureus; assay: Antibacterial activity against Staphylococcus aureus XU212 assessed as reduction in bacterial growth incubated for 24 hrs by broth microdilution method; type: functional
[24] = tested on: Staphylococcus aureus; assay: Antibacterial activity against Staphylococcus aureus SA1199B assessed as reduction in bacterial growth incubated for 24 hrs by broth microdilution method; type: functional
[25] = tested on: Staphylococcus aureus; assay: Antibacterial activity against Staphylococcus aureus RN4220 assessed as reduction in bacterial growth incubated for 24 hrs by broth microdilution method; type: functional
[26] = tested on: Staphylococcus aureus; assay: Antibacterial activity against Staphylococcus aureus CECT 976 assessed as reduction in bacterial growth incubated for 24 hrs by broth microdilution method; type: functional
[27] = tested on: Streptococcus pneumoniae; assay: Inhibition of biofilm formation in Streptococcus pneumoniae incubated for 24 hrs by crystal violet staining based assay relative to control; type: functional
[28] = tested on: Escherichia coli; assay: Inhibition of biofilm formation in Escherichia coli incubated for 24 hrs by crystal violet staining based assay relative to control; type: functional
[29] = tested on: Staphylococcus aureus; assay: Inhibition of cell adhesion in Staphylococcus aureus CECT 976 assessed as decrease in CFU at 5 times of MIC incubated upto 24 hrs relative to control; type: functional; conditions: time hrs <=24
[30] = tested on: Cell membrane; assay: Effect on surface tension of Staphylococcus aureus CECT 976 assessed as Lifshitz-van der Waals at 0.25 times of MIC incubated for 1 hr (reference value: 40.5 +/- 0.0 mJ/m2); type: subcellular
[31] = tested on: Cell membrane; assay: Effect on surface tension of Staphylococcus aureus CECT 976 assessed as Lifshitz-van der Waals at 0.5 times of MIC incubated for 1 hr (reference value: 40.5 +/- 0.0 mJ/m2); type: subcellular

Activity [1]: 1.1 mJ/m2
Activity [2]: 0.7 mJ/m2
Activity [3]: 12.5 mJ/m2
Activity [4]: 13.8 mJ/m2
Activity [5]: 11.7 mJ/m2
Activity [6]: 38 mJ/m2
Activity [7]: 0.54 mg/L
Activity [8]: 0.49 mg/L
Activity [9]: 0.51 mg/L
Activity [10]: 0.51 mg/L
Activity [11]: 97.9%
Activity [12]: 99.8%
Activity [13]: 99.1%
MIC [18]: 1250 µg/mL (≈ 6.06 mM)
MIC [19]: 1250 µg/mL (≈ 6.06 mM)
MIC [20]: 40 µg/mL (≈ 0.194 mM)
MIC [21]: 350 µg/mL (≈ 1.7 mM)
MIC [22]: > 600 µg/mL
MIC [23]: 1600 µg/mL (≈ 7.76 mM)
MIC [24]: 1000 µg/mL (≈ 4.85 mM)
MIC [25]: 2000 µg/mL (≈ 9.7 mM)
MIC [26]: 500 µg/mL (≈ 2.42 mM)
Activity [30]: 39.5 mJ/m2
Activity [31]: 37.3 mJ/m2
SMILES: CC(C)Cc1ccc(C(C)C(=O)O)cc1 (stereo unspecified) [IBUPROFEN]
MBC [14]: 1600 µg/mL (≈ 7.76 mM)
MBC [15]: 1600 µg/mL (≈ 7.76 mM)
MBC [16]: > 2000 µg/mL
MBC [17]: 1400 µg/mL (≈ 6.79 mM)
inhibition (INH) [27]: 37%
inhibition (INH) [28]: 37%
inhibition (INH) [29]: 100%
